According to ChEMBL document CHEMBL1123460, “Synthesis and biochemical properties of 8-amino-6-fluoro-9-beta-D-ribofuranosyl-9H-purine” (J Med Chem, 1986):

How the values were obtained:
[1] = Compound was evaluated for the apparent Km value.; format: ADME
[2] = system: L1210; assay: Compound was evaluated for the cytotoxicity against L1210 cells in presence of coformycin; format: functional, cell-based; settings: Mus musculus
[3] = system: L1210; assay: Compound was evaluated for the cytotoxicity against L1210 cells in absence of coformycin; format: functional, cell-based; settings: Mus musculus
[4] = system: L1210; assay: Compound was evaluated for the cytotoxicity against L1210 cells.; format: functional, cell-based; settings: Mus musculus
[5] = system: HEp-2; assay: Compound was evaluated for the cytotoxicity against H.Ep.-2 cells.; format: functional, cell-based; settings: Homo sapiens

| Km [1] [µM] | SMILES | IC50 [2] [nM] | IC50 [3] [nM] | IC50 [4] [nM] | IC50 [5] [nM] |
| --- | --- | --- | --- | --- | --- |
| 29 | Nc1ncnc2c1ncn2[C@@H]1O[C@H](CO)[C@@H](O)[C@H]1O [ADENOSINE] |  |  |  |  |
|  | OC[C@H]1O[C@@H](n2cnc3c2N=CNC[C@H]3O)C[C@@H]1O [PENTOSTATIN] | 250 | 1900 |  |  |
| 1000 | Nc1nc2c(F)ncnc2n1C1O[C@H](CO)[C@@H](O)[C@H]1O (stereo partly specified) |  |  | 1900 | 1800 |
